# Test results: patent US20180000085A1, “USE OF PICOLINAMIDE COMPOUNDS WITH FUNGICIDAL ACTIVITY” (DOW AGROSCIENCES LLC, priority 2014, published 2018)
# Tests used:
# [1] = tested on: Zymoseptoria tritici; assay: Leaf blotch of wheat (SEPTTR) disease control on wheat seedlings; type: in vivo; set-up: key to SEPTTR 1DP, HV activity at 100 ppm (% control rating) / SEPTTR 3DC, HV activity at 100 ppm (% control rating) / SEPTTR disease control, 1DP / SEPTTR disease control, 3DC / SEPTTR 1DP disease control rating, HV activity / SEPTTR 3DC disease control rating, HV activity / SEPTTR 3DC, LV activity at 125.1 g/H (% Control rating) / SEPTTR 1DP, LV activity at 125.1 g/H (% Control rating) / SEPTTR 1DP disease control rating, LV activity at 125.1 g/H / SEPTTR 3DC disease control rating, LV activity at 125.1 g/H / SEPTTR 3DC disease control rating, HV activity at 100 ppm / SEPTTR 1DP disease control rating, HV activity at 100 ppm / HV activity at 100 ppm SEPTTR 3DC (disease control rating) / HV activity at 100 ppm SEPTTR 1DP (disease control rating) / LV activity at 125.1 g/H SEPTTR 1DP (disease control rating) / LV activity at 125.1 g/H SEPTTR 3DC (disease control rating): A: > 80; B: ≤ 80; C: Not Tested; D: No Activity Observed in the Reported Assay; details: for SEPTTR 1DP disease control rating, HV activity at 100 ppm / SEPTTR 3DC disease control rating, HV activity at 100 ppm / SEPTTR 1DP, HV activity at 100 ppm (% control rating) / SEPTTR 3DC, HV activity at 100 ppm (% control rating): high volume application; for SEPTTR 1DP disease control rating, HV activity at 100 ppm / SEPTTR 1DP disease control rating, LV activity at 125.1 g/H: 1 day protectant; for SEPTTR 3DC disease control rating, HV activity at 100 ppm / SEPTTR 3DC disease control rating, LV activity at 125.1 g/H: 3 day curative; for SEPTTR disease control, 1DP / SEPTTR disease control, 3DC: HV activity at 100 ppm, wheat; for SEPTTR 1DP disease control rating, HV activity / SEPTTR 3DC disease control rating, HV activity: HV application at 100 ppm
# Protocol: (§1) All fungicides were evaluated using the aforementioned method for their activity vs. all target diseases, unless stated otherwise. Wheat leaf blotch and brown rust activity were also evaluated using track spray applications, in which case the fungicides were formulated as EC formulations, containing 0.1% Trycol 5941 in the spray solutions. Wheat plants (variety Yuma) were grown from seed in a greenhouse in 50% mineral soil/50% soil-less Metro mix until the first leaf was fully emerged, with 7-10 seedlings per pot. These plants were inoculated with an aqueous spore suspension of Zymoseptoria tritici either prior to or after fungicide treatments. After inoculation the plants were kept in 100% relative humidity (one day in a dark dew chamber followed by two to three days in a lighted dew chamber at 20° C.) to permit spores to germinate and infect the leaf. The plants were then transferred to a greenhouse set at 20° C. for disease to develop. When disease symptoms were fully expressed on the 1st leaves of untreated plants, infection levels were assessed on a scale of 0 to 100 percent disease severity. Percent disease control was calculated using the ratio of disease severity on treated plants relative to untreated plants.
# [2] = tested on: Puccinia triticina; assay: Wheat brown rust (PUCCRT) disease control on wheat seedlings; type: in vivo; set-up: key to PUCCRT 3DC, HV activity at 100 ppm (% control rating) / PUCCRT disease control, 3DC / PUCCRT 1DP disease control rating, HV activity / PUCCRT 3DC disease control rating, HV activity / PUCCRT 3DC, LV activity at 125.1 g/H (% Control rating) / PUCCRT 1DP, LV activity at 125.1 g/H (% Control rating) / PUCCRT 3DC disease control rating, LV activity at 125.1 g/H / PUCCRT 1DP disease control rating, LV activity at 125.1 g/H / PUCCRT 3DC disease control rating, HV activity at 100 ppm / PUCCRT 1DP disease control rating, HV activity at 100 ppm / HV activity at 100 ppm PUCCRT 3DC (disease control rating) / LV activity at 125.1 g/H PUCCRT 1DP (disease control rating) / LV activity at 125.1 g/H PUCCRT 3DC (disease control rating): A: > 80; B: ≤ 80; C: Not Tested; D: No Activity Observed in the Reported Assay; details: for PUCCRT 1DP disease control rating, HV activity at 100 ppm / PUCCRT 3DC disease control rating, HV activity at 100 ppm / PUCCRT 1DP, HV activity at 100 ppm (% control rating) / PUCCRT 3DC, HV activity at 100 ppm (% control rating): high volume application; for PUCCRT 1DP disease control rating, HV activity at 100 ppm / PUCCRT 1DP disease control rating, LV activity at 125.1 g/H: 1 day protectant; for PUCCRT 3DC disease control rating, HV activity at 100 ppm / PUCCRT 3DC disease control rating, LV activity at 125.1 g/H: 3 day curative; for PUCCRT disease control, 1DP / PUCCRT disease control, 3DC: HV activity at 100 ppm, wheat; for PUCCRT 1DP disease control rating, HV activity / PUCCRT 3DC disease control rating, HV activity: HV application at 100 ppm
# Protocol: as §1, with “plants. Example B: Evaluation of Fungicidal Activity: Wheat Brown Rust (Puccinia triticina; Synonym: Puccinia recondita f. sp. Tritici; Bayer Code PUCCRT) Wheat plants (variety Yuma) were grown from seed in a greenhouse in 50% mineral soil/50% soil-less Metro mix until the first leaf was fully emerged, with 7-10 seedlings per pot. These plants were inoculated with an aqueous spore suspension of Puccinia triticina either prior to or after fungicide treatments. […] The plants were then transferred to a greenhouse set at 24° C. for disease to develop. Fungicide formulation, application and disease assessment followed the procedures as described in the Example A.” for “plants.”
# [3] = low volume application, 125.1 g/H
# [4] = 1 Day Protectant, wheat leaf blotch
# [5] = 3 Day Curative, wheat leaf blotch
# [6] = 1 Day Protectant, wheat brown rust
# [7] = 3 Day Curative, wheat brown rust
Compound,"SEPTTR 1DP disease control rating, HV activity at 100 ppm [1]","SEPTTR 3DC disease control rating, HV activity at 100 ppm [1]","PUCCRT 1DP disease control rating, HV activity at 100 ppm [2]","PUCCRT 3DC disease control rating, HV activity at 100 ppm [2]","SEPTTR disease control, 1DP ([1]; 1 Day Protectant)","SEPTTR disease control, 3DC ([1]; 3 Day Curative)","SEPTTR 1DP disease control rating, HV activity [1, 4]","SEPTTR 3DC disease control rating, HV activity [1, 5]","SEPTTR 1DP, HV activity at 100 ppm (% control rating) [1]","SEPTTR 3DC, HV activity at 100 ppm (% control rating) [1]","PUCCRT disease control, 1DP ([2]; 1 Day Protectant)","PUCCRT disease control, 3DC ([2]; 3 Day Curative)","PUCCRT 1DP disease control rating, HV activity [2, 6]","PUCCRT 3DC disease control rating, HV activity [2, 7]","PUCCRT 1DP, HV activity at 100 ppm (% control rating) [2]","PUCCRT 3DC, HV activity at 100 ppm (% control rating) [2]",other results
COc1ccnc(C(=O)NC(C)C(=O)OC(C)C(Oc2ccccc2)c2nccs2)c1O (mixture of isomers) [Cmpd 808],B (≤ 80),D,A (> 80),B (≤ 80),–,–,–,–,–,–,–,–,–,–,–,–,–
COc1ccnc(C(=O)NC(Cc2ccccc2)C(=O)OC(C)C(Oc2ccccc2)C(C)C)c1O (mixture of isomers) [Cmpd 812],B (≤ 80),B (≤ 80),A (> 80),A (> 80),–,–,–,–,–,–,–,–,–,–,–,–,–
COc1ccnc(C(=O)NC(C)C(=O)OC(C)C(Oc2ccc(F)cc2)c2ccc(F)cc2)c1O (mixture of isomers) [Cmpd 838],A (> 80),A (> 80),A (> 80),B (≤ 80),–,–,–,–,–,–,–,–,–,–,–,–,–
COc1ccnc(C(=O)NC(C)C(=O)OC(C)C(Oc2ccccc2)c2nccs2)c1OCOC(C)=O (mixture of isomers) [Cmpd 861],–,–,–,–,–,–,–,–,–,–,–,–,–,–,–,–,"SEPTTR 1DP disease control rating, LV activity at 125.1 g/H [1, 3]: D; SEPTTR 3DC disease control rating, LV activity at 125.1 g/H [1, 3]: B (≤ 80); PUCCRT 1DP disease control rating, LV activity at 125.1 g/H [2, 3]: A (> 80); PUCCRT 3DC disease control rating, LV activity at 125.1 g/H [2, 3]: A (> 80)"
COc1ccnc(C(=O)NC(C)C(=O)OC(C)(C)C(Oc2ccccc2)C(C)C)c1OCOC(C)=O (mixture of isomers) [Cmpd 903],–,–,–,–,–,–,–,–,–,–,–,–,–,–,–,–,"SEPTTR 1DP disease control rating, LV activity at 125.1 g/H [1, 3]: B (≤ 80); SEPTTR 3DC disease control rating, LV activity at 125.1 g/H [1, 3]: A (> 80); PUCCRT 1DP disease control rating, LV activity at 125.1 g/H [2, 3]: B (≤ 80); PUCCRT 3DC disease control rating, LV activity at 125.1 g/H [2, 3]: D"
COc1ccnc(C(=O)NC(C(=O)OC(C)C(Oc2ccccc2)C(C)C)C(F)(F)F)c1O (mixture of isomers) [Cmpd 1018],A (> 80),D,A (> 80),A (> 80),–,–,–,–,–,–,–,–,–,–,–,–,–
COc1ccnc(C(=O)NC(C(=O)OC(C)C(Oc2ccccc2)C(C)C)C(F)(F)F)c1OCOC(C)=O (mixture of isomers) [Cmpd 1073],–,–,–,–,–,–,–,–,–,–,–,–,–,–,–,–,"LV activity at 125.1 g/H SEPTTR 1DP (disease control rating) ([1]; low volume application, 125.1 g/H, 1 Day Protectant, wheat leaf blotch): B (≤ 80); LV activity at 125.1 g/H SEPTTR 3DC (disease control rating) ([1]; low volume application, 125.1 g/H, 3 Day Curative, wheat leaf blotch): B (≤ 80); LV activity at 125.1 g/H PUCCRT 1DP (disease control rating) ([2]; low volume application, 125.1 g/H, 1 Day Protectant, wheat brown rust): A (> 80); LV activity at 125.1 g/H PUCCRT 3DC (disease control rating) ([2]; low volume application, 125.1 g/H, 3 Day Curative, wheat brown rust): A (> 80)"
CCCOC(CC)C(Oc1ccccc1)C(C)OC(=O)C(C)NC(=O)c1nccc(OC)c1O (stereo not shown) [Cmpd 289],–,–,–,–,B (≤ 80),A (> 80),B (≤ 80),A (> 80),B (≤ 80),A (> 80),A (> 80),A (> 80),A (> 80),A (> 80),A (> 80),A (> 80),–
CCCOC(CC)C(Oc1ccccc1)C(C)OC(=O)C(NC(=O)c1nccc(OC)c1O)C(C)C (stereo not shown) [Cmpd 290],–,–,–,–,B (≤ 80),B (≤ 80),B (≤ 80),B (≤ 80),B (≤ 80),B (≤ 80),A (> 80),B (≤ 80),A (> 80),B (≤ 80),A (> 80),B (≤ 80),–
CCCOC(CC)C(Oc1ccccc1)C(C)OC(=O)C(CC(C)C)NC(=O)c1nccc(OC)c1O (stereo not shown) [Cmpd 291],–,–,–,–,D,D,D,D,D,D,B (≤ 80),D,B (≤ 80),D,B (≤ 80),D,–
"CC[C@H](Cc1ccccc1)[C@@H](OCC(C)C)[C@H](C)OC(=O)[C@H](C)NC(=O)c1nccc(OC)c1O [Cmpd 293, (S)-(2S,3R,4R)-4-benzyl-3-isobutoxyhexan-2-yl-2-(3-hydroxy-4-methoxypicolinamido)propanoate]",–,–,–,–,A (> 80),B (≤ 80),A (> 80),B (≤ 80),A (> 80),B (≤ 80),A (> 80),B (≤ 80),A (> 80),B (≤ 80),A (> 80),B (≤ 80),–
CCCOC(CC)C(Oc1ccccc1)C(C)OC(=O)C(C)NC(=O)c1nccc(OC)c1O (stereo not shown) [Cmpd 295],–,–,–,–,D,B (≤ 80),D,B (≤ 80),D,B (≤ 80),B (≤ 80),B (≤ 80),B (≤ 80),B (≤ 80),B (≤ 80),B (≤ 80),–
